Results taken from the NIST ThermoML archive (doi:10.1021/je700152c).
Numbers after ± are expanded uncertainties.

Experiment: molar heat capacity at saturation pressure

CCCCn1cc[n+](C)c1.Cc1ccc(S(=O)(=O)[O-])cc1 [1-butyl-3-methylimidazolium tosylate]
Details	molar heat capacity [J/K/mol]
317.39 K, Crystal 1	512.18 ± 5.3
317.42 K, Metastable crystal	550.67 ± 5.6
317.78 K, Crystal 1	512.49 ± 5.3
319.11 K, Crystal 1	529.25 ± 5.3
319.18 K, Crystal 1	534.53 ± 5.6
319.26 K, Metastable crystal	573.33 ± 5.9
319.29 K, Crystal 1	524.29 ± 5.3
319.67 K, Crystal 1	527.08 ± 5.3
320.98 K, Crystal 1	545.71 ± 5.6
321.05 K, Crystal 1	553.47 ± 5.6
321.06 K, Metastable crystal	600.03 ± 6.2
321.17 K, Crystal 1	538.26 ± 5.6
321.53 K, Crystal 1	544.77 ± 5.6
322.82 K, Crystal 1	565.88 ± 5.6
322.82 K, Metastable crystal	633.24 ± 6.5
322.89 K, Crystal 1	575.51 ± 5.9
323.03 K, Crystal 1	555.95 ± 5.6
323.37 K, Crystal 1	566.5 ± 5.9
324.53 K, Metastable crystal	675.15 ± 6.8
324.63 K, Crystal 1	590.72 ± 5.9
324.69 K, Crystal 1	602.51 ± 6.2
324.85 K, Crystal 1	578.61 ± 5.9
325.17 K, Crystal 1	593.51 ± 5.9
326.19 K, Metastable crystal	727.92 ± 7.4
326.41 K, Crystal 1	621.45 ± 6.2
326.45 K, Crystal 1	635.42 ± 6.5
326.64 K, Crystal 1	607.48 ± 6.2
326.92 K, Crystal 1	628.28 ± 6.5
328.13 K, Crystal 1	660.56 ± 6.8
328.17 K, Crystal 1	676.7 ± 6.8
328.38 K, Crystal 1	644.42 ± 6.5
328.62 K, Crystal 1	675.15 ± 6.8
329.79 K, Crystal 1	710.85 ± 7.1
329.82 K, Crystal 1	728.23 ± 7.4
330.07 K, Crystal 1	691.29 ± 7.1
330.24 K, Crystal 1	740.02 ± 7.4
340.93 K, Metastable crystal	542.91 ± 19
342.74 K, Crystal 1	648.45 ± 23
342.82 K, Liquid	542.91 ± 5.6
343.34 K, Crystal 1	571.47 ± 6.2
343.81 K, Crystal 1	550.05 ± 5.6
343.97 K, Liquid	543.84 ± 5.6
344.54 K, Liquid	545.4 ± 5.6
344.72 K, Liquid	544.77 ± 5.6
345.34 K, Liquid	544.46 ± 5.6
346.06 K, Liquid	544.77 ± 5.6
346.43 K, Liquid	546.33 ± 5.6
346.46 K, Liquid	546.64 ± 5.6
346.61 K, Liquid	546.02 ± 5.6
347.35 K, Liquid	545.71 ± 5.6
348.14 K, Liquid	546.02 ± 5.6
348.31 K, Liquid	547.57 ± 5.6
348.49 K, Liquid	547.26 ± 5.6
348.72 K, Liquid	547.57 ± 5.6
348.77 K, Liquid	547.57 ± 5.6
350.2 K, Liquid	549.43 ± 5.6
350.6 K, Liquid	549.12 ± 5.6
350.64 K, Liquid	549.12 ± 5.6
352.08 K, Liquid	550.98 ± 5.6
352.48 K, Liquid	550.36 ± 5.6
352.5 K, Liquid	550.36 ± 5.6
353.97 K, Liquid	552.22 ± 5.6
354.36 K, Liquid	551.6 ± 5.6
354.37 K, Liquid	551.91 ± 5.6
355.86 K, Liquid	553.47 ± 5.6
356.24 K, Liquid	553.16 ± 5.6
356.25 K, Liquid	553.16 ± 5.6
357.74 K, Liquid	555.02 ± 5.6
358.11 K, Liquid	554.71 ± 5.6
358.12 K, Liquid	554.71 ± 5.6
359.64 K, Liquid	556.26 ± 5.6
359.97 K, Liquid	555.95 ± 5.6
360 K, Liquid	555.95 ± 5.6
361.53 K, Liquid	557.81 ± 5.6
361.84 K, Liquid	557.5 ± 5.6
361.88 K, Liquid	557.5 ± 5.6
363.42 K, Liquid	559.05 ± 5.6
363.75 K, Liquid	558.74 ± 5.6
365.3 K, Liquid	560.3 ± 5.6
365.62 K, Liquid	559.98 ± 5.6
367.19 K, Liquid	561.85 ± 5.6
367.5 K, Liquid	561.54 ± 5.6
